Like-named read-outs stand apart in the source and are kept apart here.
Molecular target: T1, rat mGluR5 receptor (Rattus norvegicus, UniProt P31424)
T1 construct: expressed in transfected cells; host or cells: HEK-293
Assay: [3H]-MPEP displacement binding assay, HEK-293 cell membranes expressing rat mGluR5
Conditions: for inhibition at 10 µM: single point, @ 10 μM compound, read-out: PCT INHIB (%) @ 10 μM; for Ki: read-out: Median Ki; for IC50: no Ki given, read-out: IC50 (printed in the Median Ki column instead of a Ki)
Outline: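 Membranes from HEK-293 cells expressing rat mGluR5 (12-25 μg protein), incubated 60 min at room temperature with 4 nM [3H]-MPEP in 50 mM Tris pH 7.5, then filtered. Nonspecific binding defined with 10 μM MPEP.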

[1] = [3H]-MPEP displacement, rat mGluR5

T1 sequence (P31424 21-1203): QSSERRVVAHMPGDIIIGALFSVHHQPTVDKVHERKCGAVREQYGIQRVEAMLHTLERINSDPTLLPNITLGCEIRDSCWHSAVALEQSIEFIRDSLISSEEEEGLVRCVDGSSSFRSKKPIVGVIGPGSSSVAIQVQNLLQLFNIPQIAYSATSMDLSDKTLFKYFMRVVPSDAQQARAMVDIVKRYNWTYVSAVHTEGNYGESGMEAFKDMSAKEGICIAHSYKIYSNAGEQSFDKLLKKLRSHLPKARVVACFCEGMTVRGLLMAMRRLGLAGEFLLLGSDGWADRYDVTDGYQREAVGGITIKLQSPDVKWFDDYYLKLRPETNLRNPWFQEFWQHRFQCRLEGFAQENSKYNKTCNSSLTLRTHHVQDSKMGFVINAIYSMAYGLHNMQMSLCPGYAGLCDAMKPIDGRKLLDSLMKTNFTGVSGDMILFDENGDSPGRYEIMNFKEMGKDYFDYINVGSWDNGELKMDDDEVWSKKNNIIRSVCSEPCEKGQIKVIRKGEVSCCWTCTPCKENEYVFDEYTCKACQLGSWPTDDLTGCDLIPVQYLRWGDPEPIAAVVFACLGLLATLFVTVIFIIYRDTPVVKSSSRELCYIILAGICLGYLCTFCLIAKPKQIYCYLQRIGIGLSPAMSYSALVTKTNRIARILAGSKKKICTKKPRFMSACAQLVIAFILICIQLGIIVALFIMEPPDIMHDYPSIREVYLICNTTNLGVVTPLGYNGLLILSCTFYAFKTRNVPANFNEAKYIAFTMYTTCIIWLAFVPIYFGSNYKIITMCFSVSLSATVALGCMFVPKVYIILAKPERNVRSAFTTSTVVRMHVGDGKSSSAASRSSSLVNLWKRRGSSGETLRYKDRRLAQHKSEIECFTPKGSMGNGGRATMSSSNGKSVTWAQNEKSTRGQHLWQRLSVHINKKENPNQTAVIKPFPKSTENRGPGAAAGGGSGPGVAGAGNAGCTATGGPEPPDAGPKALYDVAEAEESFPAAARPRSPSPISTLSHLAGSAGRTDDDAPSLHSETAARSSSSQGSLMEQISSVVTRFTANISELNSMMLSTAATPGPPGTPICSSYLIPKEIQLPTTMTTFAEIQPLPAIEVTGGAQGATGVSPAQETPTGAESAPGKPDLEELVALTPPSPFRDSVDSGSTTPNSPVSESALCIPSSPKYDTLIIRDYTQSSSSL

SMILES | Ki [1] | also measured
Oc1cccc(C#Cc2cccc(CN3CCN(c4ccccn4)CC3)c2)c1 [Compound 177, 3-({3-[(4-pyridin-2-ylpiperazin-1-yl)methyl]phenyl}ethynyl)phenol] | – | inhibition at 10 µM (Table 6): 13%
C(#Cc1cccc(CN2CCN(c3ccccn3)CC2)c1)C1=CCCCC1 [Compound 178, 1-[3-(cyclohex-1-en-1-ylethynyl)benzyl]-4-pyridin-2-ylpiperazine] | – | inhibition at 10 µM (Table 6): 0%
C(#Cc1cccc(CN2CCN(c3ccccn3)CC2)c1)Cc1ccccc1 [Compound 179, 1-[3-(3-phenylprop-1-yn-1-yl)benzyl]-4-pyridin-2-ylpiperazine] | – | inhibition at 10 µM (Table 6): 0%
Nc1cccc(C#Cc2cccc(CN3CCN(c4ccccn4)CC3)c2)c1 [Compound 180, 3-({3-[(4-pyridin-2-ylpiperazin-1-yl)methyl]phenyl}ethynyl)aniline] | – | inhibition at 10 µM (Table 6): 0%
COc1cccc(C#Cc2cccc(CN3CCN(c4ccccn4)CC3)c2)c1 [Compound 181, 1-{3-[(3-methoxyphenyl)ethynyl]benzyl}-4-pyridin-2-ylpiperazine] | – | inhibition at 10 µM (Table 6): 0%
COc1ccc(C(=O)N2CCN(c3ccccn3)CC2)cc1/C=C/c1ccccc1 [Compound 182, 1-{4-methoxy-3-[(E)-2-phenylvinyl]benzoyl}-4-pyridin-2-ylpiperazine] | – | Ki ([3H]-MPEP 4 nM, Table 7A): 827 nM; inhibition at 10 µM (Table 7A): 86%
COc1ccc(C(=O)N2CCCN(c3ccc(C#N)cn3)CC2)cc1C#Cc1ccccn1 [Compound 202, 6-{4-[4-methoxy-3-(pyridin-2-ylethynyl)benzoyl]-1,4-diazepan-1-yl}nicotinonitrile] | 1040 nM | –
COc1ccc(C(=O)N2CCCN(c3ncccc3C(F)(F)F)CC2)cc1C#Cc1ccccn1 [Compound 209, 1-[4-methoxy-3-(pyridin-2-ylethynyl)benzoyl]-4-[3-(trifluoromethyl)pyridin-2-yl]-1,4-diazepane] | 674 nM | –
COc1ccc(C(=O)N2CCCN(c3ccc(C(F)(F)F)cn3)CC2)cc1C#Cc1ccccn1 [Compound 210, 1-[4-methoxy-3-(pyridin-2-ylethynyl)benzoyl]-4-[5-(trifluoromethyl)pyridin-2-yl]-1,4-diazepane] | 851 nM | –
COc1ccc(C(=O)N2CCCN(c3cccc(C)n3)CC2)cc1C#Cc1ccccn1 [Compound 211, 1-[4-methoxy-3-(pyridin-2-ylethynyl)benzoyl]-4-(6-methylpyridin-2-yl)-1,4-diazepane] | 619 nM | –
COc1ccc(C(=O)N2CCCN(c3ncc(C(F)(F)F)cc3Cl)CC2)cc1C#Cc1ccccn1 [Compound 212, 1-[3-chloro-5-(trifluoromethyl)pyridin-2-yl]-4-[4-methoxy-3-(pyridin-2-ylethynyl)benzoyl]-1,4-diazepane] | 704 nM | –
COc1ccc(C(=O)N2CCCN(c3ncccc3C#N)CC2)cc1C#Cc1ccccn1 [Compound 214, 2-{4-[4-methoxy-3-(pyridin-2-ylethynyl)benzoyl]-1,4-diazepan-1-yl}nicotinonitrile] | 458 nM | –
COc1ccc(C(=O)N2CCCN(c3ccc([N+](=O)[O-])cn3)CC2)cc1C#Cc1ccccn1 [Compound 215, 1-[4-methoxy-3-(pyridin-2-ylethynyl)benzoyl]-4-(5-nitropyridin-2-yl)-1,4-diazepane] | 2190 nM | –
COc1ccc(C(=O)N2CCN(S(=O)(=O)c3ccccc3)CC2)cc1C#Cc1ccccn1 [Compound 224, 1-[4-methoxy-3-(pyridin-2-ylethynyl)benzoyl]-4-(phenylsulfonyl)piperazine] | 115 nM | –
COc1ccc(C(=O)N2CCN(c3ccc(C(F)(F)F)cc3)CC2)cc1C#Cc1ccccn1 [Compound 228, 1-[4-methoxy-3-(pyridin-2-ylethynyl)benzoyl]-4-[4-(trifluoromethyl)phenyl]piperazine] | 674 nM | –
COc1ccc(C(=O)N2CCN(c3ccccc3OC)CC2)cc1C#Cc1ccccn1 [Compound 230, 1-(2-methoxyphenyl)-4-[4-methoxy-3-(pyridin-2-ylethynyl)benzoyl]piperazine] | 734 nM | –
COc1ccc(C(=O)N2CCN(S(=O)(=O)Cc3ccccc3)CC2)cc1C#Cc1ccccn1 [Compound 234, 1-(benzylsulfonyl)-4-[4-methoxy-3-(pyridin-2-ylethynyl)benzoyl]piperazine] | – | IC50 [1]: > 10000 nM
COc1ccc(C(=O)N2CCN(c3ccc(S(C)(=O)=O)cc3)CC2)cc1C#Cc1ccccn1 [Compound 238, 1-[4-methoxy-3-(pyridin-2-ylethynyl)benzoyl]-4-[4-(methylsulfonyl)phenyl]piperazine] | 521 nM | –
COc1ccc(C(=O)N2CCN(S(=O)(=O)c3ccc(Cl)c(Cl)c3)CC2)cc1C#Cc1ccccn1 [Compound 239, 1-[(3,4-dichlorophenyl)sulfonyl]-4-[4-methoxy-3-(pyridin-2-ylethynyl)benzoyl]piperazine] | 1410 nM | –

SMILES | Ki [1] | also measured
COc1ccc(C(=O)N2CCN(c3ccc(F)cc3S(C)(=O)=O)CC2)cc1C#Cc1ccccn1 [Compound 240, 1-[4-fluoro-2-(methylsulfonyl)phenyl]-4-[4-methoxy-3-(pyridin-2-ylethynyl)benzoyl]piperazine] | – | IC50 [1]: > 10000 nM
COc1ccc(C(=O)N2CCN(c3cc(C)ccc3C)CC2)cc1C#Cc1ccccn1 [Compound 242, 1-(2,5-dimethylphenyl)-4-[4-methoxy-3-(pyridin-2-ylethynyl)benzoyl]piperazine] | 1010 nM | –
COc1ccc(C(=O)N2CCN(c3ccccc3C(F)(F)F)CC2)cc1C#Cc1ccccn1 [Compound 246, 1-[4-methoxy-3-(pyridin-2-ylethynyl)benzoyl]-4-[2-(trifluoromethyl)phenyl]piperazine] | 2840 nM | –
COc1ccc(C(=O)N2CCN(C(=O)C3CCCO3)CC2)cc1C#Cc1ccccn1 (stereo not drawn) [Compound 249, 1-[4-methoxy-3-(pyridin-2-ylethynyl)benzoyl]-4-(tetrahydrofuran-2-ylcarbonyl)piperazine] | 181 nM | –
COc1ccc(C(=O)N2CCN(c3sc(S(N)(=O)=O)cc3[N+](=O)[O-])CC2)cc1C#Cc1ccccn1 [Compound 254, 5-{4-[4-methoxy-3-(pyridin-2-ylethynyl)benzoyl]piperazin-1-yl}-4-nitrothiophene-2-sulfonamide] | 108 nM | –
COc1ccc(C(=O)N2CCN(c3cc4ccc(Cl)cc4cn3)CC2)cc1C#Cc1ccccn1 [Compound 260, 7-chloro-3-{4-[4-methoxy-3-(pyridin-2-ylethynyl)benzoyl]piperazin-1-yl}isoquinoline] | 951 nM | –
COc1ccc(C(=O)N2CCN(c3cc4ccc(Br)cc4cn3)CC2)cc1C#Cc1ccccn1 [Compound 261, 7-bromo-3-{4-[4-methoxy-3-(pyridin-2-ylethynyl)benzoyl]piperazin-1-yl}isoquinoline] | 1380 nM | –
COc1ccc(C(=O)N2CCN(C(=O)c3ccccc3OC)CC2)cc1C#Cc1ccccn1 [Compound 263, 1-(2-methoxybenzoyl)-4-[4-methoxy-3-(pyridin-2-ylethynyl)benzoyl]piperazine] | 169 nM | –
COc1cccc(C(=O)N2CCN(C(=O)c3ccc(OC)c(C#Cc4ccccn4)c3)CC2)c1 [Compound 264, 1-(3-methoxybenzoyl)-4-[4-methoxy-3-(pyridin-2-ylethynyl)benzoyl]piperazine] | 106 nM | –
COc1ccc(C(=O)N2CCN(S(=O)(=O)c3ccc(Br)s3)CC2)cc1C#Cc1ccccn1 [Compound 269, 1-[(5-bromo-2-thienyl)sulfonyl]-4-[4-methoxy-3-(pyridin-2-ylethynyl)benzoyl]piperazine] | 49 nM | –
COc1ccc(C(=O)N2CCN(S(=O)(=O)c3c(C)noc3C)CC2)cc1C#Cc1ccccn1 [Compound 270, 1-[(3,5-dimethylisoxazol-4-yl)sulfonyl]-4-[4-methoxy-3-(pyridin-2-ylethynyl)benzoyl]piperazine] | 1540 nM | –
COc1ccc(C(=O)N2CCN(c3cc(Cl)cc(Cl)c3)CC2)cc1C#Cc1ccccn1 [Compound 271, 1-(3,5-dichlorophenyl)-4-[4-methoxy-3-(pyridin-2-ylethynyl)benzoyl]piperazine] | 18 nM | –
COc1ccc(C(=O)N2CCN(S(=O)(=O)c3ccc(-n4cnnn4)c(OC)c3)CC2)cc1C#Cc1ccccn1 [Compound 272, 1-[4-methoxy-3-(pyridin-2-ylethynyl)benzoyl]-4-{[3-methoxy-4-(1H-tetrazol-1-yl)phenyl]sulfonyl}piperazine] | – | IC50 [1]: > 10000 nM
COc1ccc(C(=O)N2CCN(S(=O)(=O)c3cccc4c(N(C)C)cccc34)CC2)cc1C#Cc1ccccn1 [Compound 273, 5-({4-[4-methoxy-3-(pyridin-2-ylethynyl)benzoyl]piperazin-1-yl}sulfonyl)-N,N-dimethylnaphthalen-1-amine] | 1740 nM | –
COc1ccc(C(=O)N2CCN(c3nnc([N+](=O)[O-])s3)CC2)cc1C#Cc1ccccn1 [Compound 276, 1-[4-methoxy-3-(pyridin-2-ylethynyl)benzoyl]-4-(5-nitro-1,3,4-thiadiazol-2-yl)piperazine] | 139 nM | –
COc1ccc(C(=O)N2CCN(Cc3c(Cl)cccc3Cl)CC2)cc1C#Cc1ccccn1 [Compound 277, 1-(2,6-dichlorobenzyl)-4-[4-methoxy-3-(pyridin-2-ylethynyl)benzoyl]piperazine] | 272 nM | –
COc1ccc(C(=O)N2CCN(S(=O)(=O)c3ccccc3Cl)CC2)cc1C#Cc1ccccn1 [Compound 278, 1-[(2-chlorophenyl)sulfonyl]-4-[4-methoxy-3-(pyridin-2-ylethynyl)benzoyl]piperazine] | 876 nM | –
COc1ccc(C(=O)N2CCN(S(=O)(=O)c3cccc(Cl)c3)CC2)cc1C#Cc1ccccn1 [Compound 279, 1-[(3-chlorophenyl)sulfonyl]-4-[4-methoxy-3-(pyridin-2-ylethynyl)benzoyl]piperazine] | 832 nM | –
COc1ccc(C(=O)N2CCN(c3nc(-c4ccccc4)ns3)CC2)cc1C#Cc1ccccn1 [Compound 281, 1-[4-methoxy-3-(pyridin-2-ylethynyl)benzoyl]-4-(3-phenyl-1,2,4-thiadiazol-5-yl)piperazine] | 197 nM | –
